Data reported in patent US20060148763A1, “Compounds and methods for regulating triglyceride levels” (priority 2005, published 2006).

Tests used:
[1] = test system: Non-HDL; assay: Phase II cross-over study of P5P alone and with lisinopril in hypertensive type 2 diabetic patients: non-HDL; assay type: in vivo, human
Protocol: (§1) Objective—A phase II clinical study was conducted to determine the effects of pyridoxal-5′-phosphate in combination with lisinopril on blood pressure and metabolic function in hypertensive patients with type 2 diabetes.
(§2) Summary of Study Design—The phase II study was a randomized, parallel group, cross-over, double-blinded to study medication, placebo-controlled comparison of P5P BID at total daily doses of 100, 300, or 1000 mg alone and in combination with 20 mg lisinopril given once daily (QD). In order to protect against antihypertensive and metabolic carry-over effects of lisinopril, all patients were randomized in 2 different treatment sequences. Patients randomized in the first treatment sequence receive an 8-week treatment with lisinopril 20 mg and P5P (or placebo) and then an 8-week treatment with P5P alone (or placebo). Patients randomized in the second treatment sequence receive an 8-week treatment with P5P alone and then an 8-week treatment with lisinopril 20 mg and P5P (or placebo). In each treatment sequence, all patients were randomized to P5P at the different prespecified dosages.
(§3) Mean trough sitting and standing BP were measured at each visit. Twenty-four hour ambulatory BP monitoring (ABPM) were performed at Visit 2 prior to randomization (end of washout period) and after week 8 (Visit 5) and week 16 (Visit 8) weeks of active therapy. Laboratory tests were performed at screening (Visit 1), prior to randomization (Visit 2), at week 2 (Visit 3a), week 8 (Visit 5), week 10 (Visit 6a), and at week 16 (Visit 8).
(§4) Treatment Plan—Two to Four-week Washout (Baseline) Period. Patients were instructed on the proper procedure for discontinuing their current antihypertensive medications (discontinuation or tapering) according to the manufacturer's label specifications. If a patient's current antihypertensive treatment needed to be tapered earlier, the Investigator complied with the corresponding timelines before randomization. With the exception of any tapering off of prior therapy, if any, no other anti-hypertensive medication was given to the patient during the washout period. Patients continued any existing diabetic treatment with sulfonylureas (tolbutamide, tolazamide, acetohexamide, chlorpropamide and second generation glyburide, glipizide, glimepiride), D-Phenylalanine derivatives, metformin, thiazolidinediones, acarbose, miglitol, and/or insulin throughout the study. Patients received placebo to be taken twice daily during the washout period. Standard diabetic medication was maintained throughout study. The duration of the washout period was two to four weeks, at the discretion of the Investigator taking into consideration whether the patient's blood pressure had stabilized following removal of any prior antihypertensive medication.
(§5) Active (Study) Medication Period: After the washout period, eligible patients were randomized to one of the 2 following sequences of treatment for 16 weeks.
(§6) Week 0 to 8: Treatment period (P5P alone (or placebo) or P5P (or placebo) and Lisinopril)
(§7) Week 8 to 16: Treatment period (P5P alone (or placebo) or P5P (or placebo) and Lisinopril)
(§8) Study Groups—The patients were randomized into one of […] groups:
(§9) Sequence 1 P5P 300 mg and then P5P 300 mg+Lisinopril 20 mg
(§10) Sequence 2 P5P 300 mg+Lisinopril 20 mg and then P5P 300 mg alone
(§11) All medications were taken at the same time each day during washout and treatment periods:
(§12) Other Efficacy Endpoints—Analytical efficacy measurements, including markers of metabolic function (insulinemia, fasting serum glucose, glycated hemoglobin, LDL, HDL, non-HDL and triglycerides), endothelial function (ICAM-1, VCAM-1, E-selectin and albuminuria), kidney function (creatinine, glomular filtration rate), CRP and homocysteine, were conducted on blood samples taken on Visits 2, 5 and 8. Samples were sent to a central laboratory for analysis.

[2] = test system: total serum cholesterol (TC); assay: Phase II cross-over study of P5P alone and with lisinopril in hypertensive type 2 diabetic patients: total cholesterol; assay type: in vivo, human; conditions: for reduction in serum TC levels (placebo corrected): patients having elevated TC levels (>5.15 mmol/L)
Protocol: as §1, §2, §3, §4, §5, §6, §7, §8, §9, §10, §11, §12

[3] = P5P 300 mg, patients with Non HDL >3.34 mmol/L
[4] = P5P 300 mg, patients with TC >5.18 mmol/L

Q: With `Cc1ncc(COP(=O)(O)O)c(C=O)c1O` [P5P, pyridoxal-5′-phosphate] as the compound, how does the “Non-HDL change vs baseline (b)” value ([1]; P5P 300 mg, non-stratified, calculated number, not measured in plasma) read?
A: Its value is −0.21 mmol/L (p=)b.

Q: And the Non-HDL change [1, 3]?
A: The Non-HDL change was −0.68 mmol/L (p = 0.029).

Q: What about the “Non-HDL reduction vs baseline (b)” value [1, 3] of the same compound?
A: The value was “(15%)b”.

Q: And the “reduction in non-HDL compared to baseline” value ([1]; P5P 300 mg, patients with non-HDL >3.34 mmol/L at baseline)?
A: The value was 0.68 mmol/L.

Q: What about the “Non-HDL change vs baseline (b)” value ([1]; P5P 1000 mg, non-stratified, calculated number, not measured in plasma) of the same compound?
A: The value was −0.26 mmol/L (p = 0.089)b.

Q: What about the “Non-HDL change vs baseline (b)” value ([1]; P5P 1000 mg, patients with Non HDL >3.34 mmol/L) of the same compound?
A: Its value is −0.71 mmol/L (p = 0.007)b.

Q: And the “decrease in non-HDL vs. baseline” value ([1]; P5P 1000 mg, patients with non-HDL. 3.34 mmol/L)?
A: The value was 0.71 mmol/L.

Q: What about the “TC change vs baseline (b)” value ([2]; P5P 300 mg, TC non-stratified) of the same compound?
A: Its value is −0.18 mmol/L (p = 0.273)b.

Q: And the “reduction in serum TC levels (placebo corrected)” value ([2]; P5P 300 mg)?
A: The value was “about 0.91 mmol/L”.

Q: What about the TC change [2, 4] of the same compound?
A: Its TC change is −0.91 mmol/L (p = 0.02).

Q: What about the “TC reduction vs baseline (b)” value [2, 4] of the same compound?
A: Its value is “(15.7%)b”.

Q: And the “TC change vs baseline (b)” value ([2]; P5P 1000 mg, TC non-stratified)?
A: The value was −0.29 mmol/L (p = 0.075)b.

Q: And the “reduction in serum TC levels (placebo corrected)” value ([2]; P5P 1000 mg)?
A: The value was “about 1.03 mmol/L”.

Q: What about the “TC change vs baseline (b)” value ([2]; P5P 1000 mg, patients with TC >5.18 mmol/L) of the same compound?
A: The value was −1.03 mmol/L (p = 0.001)b.
